From patent US7833967B2, “Synthetic antimicrobial polypeptides” (priority 2003, dated 2010)

System: E. coli TOP10
Experiment: Suicide expression system (SES) growth inhibition
Assay type: cell-based
[1] = Table 5, mixed-motif library, re-tested in the Bioscreen C
[2] = Table 4, variants of SEQ ID NO:10, re-tested in the Bioscreen C
[3] = Table 3, variants of SEQ ID NO:5, re-tested in the Bioscreen C
[4] = Table 2, variants of SEQ ID NO:1, re-tested in the Bioscreen C

Row | Substance | Growth inhibition (%) [1] | Growth inhibition (%) [2] | further results
1 | 210 (RRRPPRIPRPIPVRPPPRIPRPIPFRP; Synthetic antimicrobial peptide) [compound 210] | 94% |  | 
2 | 82 (RRRPIRPPFRPPVRPPFRPPFRPPFRP; Synthetic antimicrobial peptide) [compound 82] |  | 71% | 
3 | 191 (RRRPFRPPFRPPIRPPFRPPVRPPFRP; Synthetic antimicrobial peptide) [compound 191] |  | 77% | 
4 | 286 (RRRPPRLPRPLPVRPPPRIPRPLPLRP; Synthetic antimicrobial peptide) [compound 286] | 95% |  | 
5 | 64 (RRRPFRPPFRPPFRPPFRPPFRPPFRP; Synthetic antimicrobial peptide) [compound 64] |  | 82% | 
6 | 287 (RRRPPRLPRPLPVRPPPRLPRPIPIRP; Synthetic antimicrobial peptide) [compound 287] | 95% |  | 
7 | 140 (RRRPIRPPIRPPFRPPVRPPVRPPFRP; Synthetic antimicrobial peptide) [compound 140] |  | 70% | 
8 | 105 (RRRPIRPPLRPPLRPPFRPPFRPPFRP; Synthetic antimicrobial peptide) [compound 105] |  | 73% | 
9 | 77 (RRRPFRPPFRPPIRPPVRPPFRPPFRP; Synthetic antimicrobial peptide) [compound 77] |  | 72% | 
10 | 151 (RRRPLRPPVRPPLRPPVRPPFRPPFRP; Synthetic antimicrobial peptide) [compound 151] |  | 68% | 
11 | 160 (RRRPFRPPVRPPFRPPVRPPFRPPFRP; Synthetic antimicrobial peptide) [compound 160] |  | 77% | 
12 | 55 (RRRPRPFPRPVPRPVPRPFPRPLPRPI; Synthetic antimicrobial peptide) [compound 55] |  |  | Growth inhibition (%) [3]: 63%
13 | 196 (RRRPFRPPLRPPIRPPIRPPFRPPFRP; Synthetic antimicrobial peptide) [compound 196] |  | 77% | 
14 | 89 (RRRPFRPPFRPPFRPPVRPPVRPPLRP; Synthetic antimicrobial peptide) [compound 89] |  | 70% | 
15 | 262 (RRRPPRLPRPIPVRPPPRLPRPVPLRP; Synthetic antimicrobial peptide) [compound 262] | 93% |  | 
16 | 173 (RRRPLRPPIRPPLRPPVRPPFRPPFRP; Synthetic antimicrobial peptide) [compound 173] |  | 81% | 
17 | 21 (RRRPPRLPPRFPPRFPPRVPPRFPPRV; Synthetic antimicrobial peptide) [compound 21] |  |  | Growth inhibition (%) [4]: 86%
18 | 274 (RRRPPRLPRPLPIRPPPRFPRPVPVRP; Synthetic antimicrobial peptide) [compound 274] | 93% |  | 
19 | 145 (RRRPLRPPVRPPFRPPFRPPLRPPFRP; Synthetic antimicrobial peptide) [compound 145] |  | 59% | 
20 | 74 (RRRPFRPPVRPPFRPPFRPPIRPPIRP; Synthetic antimicrobial peptide) [compound 74] |  | 76% | 
21 | 39 (RRRPRPFPRPFPRPFPRPLPRPFPRPF; Synthetic antimicrobial peptide) [compound 39] |  |  | Growth inhibition (%) [3]: 56%
22 | 240 (RRRPPRLPRPFPVRPPPRFPRPVPFRP; Synthetic antimicrobial peptide) [compound 240] | 91% |  | 

Row | Substance | Growth inhibition (%) [1] | Growth inhibition (%) [2] | further results
23 | 46 (RRRPRPFPRPFPRPVPRPFPRPFPRPI; Synthetic antimicrobial peptide) [compound 46] |  |  | Growth inhibition (%) [3]: 84%
24 | 25 (RRRPPRLPPRFPPRFPPRVPPRVPPRI; Synthetic antimicrobial peptide) [compound 25] |  |  | Growth inhibition (%) [4]: 81%
25 | 141 (RRRPIRPPIRPPFRPPFRPPLRPPIRP; Synthetic antimicrobial peptide) [compound 141] |  | 65% | 
26 | 60 (RRRPRPIPRPFPRPVPRPVPRPFPRPF; Synthetic antimicrobial peptide) [compound 60] |  |  | Growth inhibition (%) [3]: 70%
27 | 93 (RRRPFRPPFRPPFRPPVRPPLRPPIRP; Synthetic antimicrobial peptide) [compound 93] |  | 61% | 
28 | 266 (RRRPPRLPRPLPFRPPPRLPRPVPVRP; Synthetic antimicrobial peptide) [compound 266] | 94% |  | 
29 | 311 (RRRPPRVPRPFPVRPPPRFPRPVPFRP; Synthetic antimicrobial peptide) [compound 311] | 96% |  | 
30 | 10 (RRRPFRPPFRPPFRPPFRPPFRPPFRP; Synthetic antimicrobial peptide) [compound 10] |  |  | Growth inhibition (%) (Table 1, 0.1% inducer (arabinose), pBAD/gIIIA in E. coli TOP10, Bioscreen C 37° C., end point OD450 vs control vector): 78%
31 | 112 (RRRPFRPPIRPPFRPPVRPPVRPPVRP; Synthetic antimicrobial peptide) [compound 112] |  | 69% | 
32 | 203 (RRRPFRPPIRPPFRPPIRPPFRPPFRP; Synthetic antimicrobial peptide) [compound 203] |  | 79% | 
33 | 172 (RRRPFRPPIRPPFRPPIRPPVRPPFRP; Synthetic antimicrobial peptide) [compound 172] |  | 82% | 
34 | 171 (RRRPIRPPIRPPIRPPIRPPFRPPFRP; Synthetic antimicrobial peptide) [compound 171] |  | 77% | 
35 | 252 (RRRPPRLPRPIPFRPPPRIPRPVPVRP; Synthetic antimicrobial peptide) [compound 252] | 92% |  | 
36 | 87 (RRRPFRPPFRPPIRPPFRPPVRPPVRP; Synthetic antimicrobial peptide) [compound 87] |  | 80% | 
37 | 297 (RRRPPRLPRPVPFRPPPRVPRPIPVRP; Synthetic antimicrobial peptide) [compound 297] | 90% |  | 
38 | 239 (RRRPPRLPRPFPVRPPPRFPRPFPLRP; Synthetic antimicrobial peptide) [compound 239] | 99% |  | 
39 | 75 (RRRPFRPPIRPPVRPPFRPPFRPPFRP; Synthetic antimicrobial peptide) [compound 75] |  | 79% | 
40 | 260 (RRRPPRLPRPIPVRPPPRIPRPIPVRP; Synthetic antimicrobial peptide) [compound 260] | 90% |  | 
41 | 163 (RRRPIRPPFRPPFRPPFRPPIRPPIRP; Synthetic antimicrobial peptide) [compound 163] |  | 79% | 
42 | 37 (RRRPRPFPRPFPRPFPRPIPRPFPRPV; Synthetic antimicrobial peptide) [compound 37] |  |  | Growth inhibition (%) [3]: 68%
43 | 271 (RRRPPRLPRPLPFRPPPRVPRPVPVRP; Synthetic antimicrobial peptide) [compound 271] | 97% |  | 
44 | 70 (RRRPLRPPLRPPFRPPIRPPLRPPFRP; Synthetic antimicrobial peptide) [compound 70] |  | 76% | 

Row | Substance | Growth inhibition (%) [1] | Growth inhibition (%) [2] | further results
45 | 309 (RRRPPRVPRPFPIRPPPRVPRPIPFRP; Synthetic antimicrobial peptide) [compound 309] | 76% |  | 
46 | 183 (RRRPFRPPVRPPLRPPFRPPFRPPFRP; Synthetic antimicrobial peptide) [compound 183] |  | 80% | 
47 | 136 (RRRPFRPPFRPPIRPPFRPPIRPPLRP; Synthetic antimicrobial peptide) [compound 136] |  | 77% | 
48 | 281 (RRRPPRLPRPLPLRPPPRFPRPVPLRP; Synthetic antimicrobial peptide) [compound 281] | 91% |  | 
49 | 248 (RRRPPRLPRPFPVRPPPRVPRPVPIRP; Synthetic antimicrobial peptide) [compound 248] | 94% |  | 
50 | 276 (RRRPPRLPRPLPIRPPPRLPRPVPVRP; Synthetic antimicrobial peptide) [compound 276] | 94% |  | 
51 | 319 (RRRPPRVPRPFPVRPPPRVPRPIPFVHNCSRTKTHLRRGSE; Synthetic antimicrobial peptide) [compound 319] | 93% |  | 
52 | 95 (RRRPFRPPLRPPLRPPIRPPVRPPFRP; Synthetic antimicrobial peptide) [compound 95] |  | 80% | 
53 | 316 (RRRTRHVFARPFPFRPPPRIPRPFPLRP; Synthetic antimicrobial peptide) [compound 316] | 97% |  | 
54 | 28 (RRRPRPFPRPFPRPFPRPFPRPFPRPF; Synthetic antimicrobial peptide) [compound 28] |  |  | Growth inhibition (%) [3]: 57%
55 | 279 (RRRPPRLPRPLPIRPPPRVPRPLPLRP; Synthetic antimicrobial peptide) [compound 279] | 91% |  | 
56 | 59 (RRRPRPIPRPFPRPIPRPVPRPFPRPF; Synthetic antimicrobial peptide) [compound 59] |  |  | Growth inhibition (%) [3]: 75%
57 | 317 (RRRTRHVFARPVPVRPPPRVPRPFPVRP; Synthetic antimicrobial peptide) [compound 317] | 95% |  | 
58 | 66 (RRRPFRPPFRPPFRPPIRPPLRPPIRP; Synthetic antimicrobial peptide) [compound 66] |  | 76% | 
59 | 215 (RRRPPRLPRPFPFRPPPRPRPFPFRP; Synthetic antimicrobial peptide) [compound 215] | 94% |  | 
60 | 130 (RRRPFRPPIRPPLRPPFRPPVRPPLRP; Synthetic antimicrobial peptide) [compound 130] |  | 78% | 
61 | 264 (RRRPPRLPRPLPFRPPPRFPRPVPVRP; Synthetic antimicrobial peptide) [compound 264] | 92% |  | 
62 | 187 (RRRPIRPPFRPPFRPPVRPPFRPPFRP; Synthetic antimicrobial peptide) [compound 187] |  | 85% | 
63 | 44 (RRRPRPFPRPFPRPLPRPFPRPVPRPF; Synthetic antimicrobial peptide) [compound 44] |  |  | Growth inhibition (%) [3]: 95%
64 | 150 (RRRPIRPPIRPPFRPPIRPPFRPPVRP; Synthetic antimicrobial peptide) [compound 150] |  | 68% | 
